Data reported in paper PMC6222898, “Cinnamoyl-Oxaborole Amides: Synthesis and Their in Vitro Biological Activity” (Molecules : A Journal of Synthetic Chemistry and Natural …, 2018).
Converted amounts (≈) assume the structure as drawn. Like-named read-outs stand apart in the source and are kept apart here.

How the values were obtained:
[1] = test system: Trypanosoma brucei brucei 427 trypomastigotes; assay: In vitro antitrypanosomal assay (resazurin viability); format: cell-based; details: T. b. brucei 427, 24 h incubation
Method: Trypanosoma brucei brucei 427 trypomastigotes were cultured in Iscove’sss Modified Dulbecco’s medium (IMDM, Lonza, Basel Switzerland) supplemented with 10% fetal calf serum, HMI-9 supplement, hypoxanthine, and penicillin/streptomycin at 37 °C in a 5% CO2 incubator. […] Reduction of resazurin to resorufin by viable parasites was assessed by fluorescence readings (excitation 560 nm, emission 590 nm) in a Spectramax M3 plate reader (Molecular Devices, San Jose, CA, USA). Fluorescence readings were converted to % parasite viability relative to the average readings obtained from untreated control wells. IC50 values were determined by plotting % viability vs. log[compound] and performing non-linear regression using GraphPad Prism (v. 5.02) software.

[2] = In vitro cytotoxicity assay (resazurin); format: cell-based; details: human, HeLa cells; 20 μM compound; 48 h exposure, 24 h
Method: HeLa cells (Cellonex, Johannesburg, South Africa) seeded in 96-well plates were incubated with 20 μM test compounds for 24 h and cell viability assessed using a resazurin fluorescence assay as previously described.

[3] = test system: Trichomonas vaginalis G3 strain; assay: In vitro antitrichomonal assay (hemocytometer counts); format: cell-based; details: 24 h, read-out: IC50 T. vaginalis
[4] = test system: Mycobacterium tuberculosis H37Rv; assay: In vitro antimycobacterial broth microdilution assay; format: cell-based; details: concentration inhibiting mycobacterial growth by 99%
[5] = test system: Trypanosoma brucei brucei 427 trypomastigotes; details: cited from earlier work
Dd2 = test system: Dd2; design: method as in PMID 11310613; details: Figure 2; cited from earlier work

Structure (SMILES)	IC50 [1] [nM]	viability at 48 h, 20 µM [2] [%]	IC50 [3] [nM]	MIC99 [4] [µM]	melting point [°C]	IC50 antitrypanosomal ([5]; T. b. brucei, footnote a: IC50 in μg/mL)	IC50 antitrypanosomal ([5]; T. b. brucei S427, footnote b: IC50 in μg/mL)	IC50 (Dd2) [nM]
O=C(/C=C/c1ccccc1)Nc1ccc2c(c1)B(O)OC2 [Compound 5a, (E)-N-(1-Hydroxy-1,3-dihydrobenzo[c][1,2]oxaborol-6-yl)cinnamamide]	130 ± 20	108 ± 5.35	15300 ± 330	61.8 (≈ 17.2 µg/mL)	182 to 184			
O=C(/C=C/c1ccc2c(c1)OCO2)Nc1ccc2c(c1)B(O)OC2 [Compound 5g, (E)-3-(Benzo[d][1,3]-6-dioxol-5-yl)-N-(1-hydroxy-1,3-dihydrobenzo[c][1,2]oxaborol-6-yl)acrylamide]	86 ± 2	132 ± 26.6	22800 ± 1020	40.7 (≈ 13.2 µg/mL)	145 to 148			
COc1ccc(/C=C/C(=O)Nc2ccc3c(c2)B(O)OC3)cc1OC [Compound 5f, (E)-3-(3,4-Dimethoxyphenyl)-N-(1-hydroxy-1,3-dihydrobenzo[c][1,2]oxaborol-6-yl)acrylamide]	8710 ± 650	109.9 ± 0.84	> 50000		188 to 190			
CC[C@H]1CN2CCc3cc(OC)c(OC)cc3[C@@H]2C[C@@H]1C[C@H]1NCCc2cc(OC)c(OC)cc21 [EM, emetine, reference compound]		3.19						
CC1(C)OB(O)c2cc(NC(=O)c3ccc(F)cc3C(F)(F)F)ccc21 [Compound 1, SCYX-7158]						0.292 ± 0.019 ^a μg/mL		
CO[C@H]1/C=C/O[C@@]2(C)Oc3c(C)c(O)c4c(O)c(c(/C=N/N5CCN(C)CC5)c(O)c4c3C2=O)NC(=O)/C(C)=C\C=C\[C@H](C)[C@H](O)[C@@H](C)[C@@H](O)[C@@H](C)[C@H](OC(C)=O)[C@@H]1C [RE, rifampicin, reference compound]				0.003 (≈ 0.00247 µg/mL)				
COc1ccc(/C=C/C(=O)Nc2ccc3c(c2)B(O)OC3)cc1 [Compound 5e, (E)-N-(1-Hydroxy-1,3-dihydrobenzo[c][1,2]oxaborol-6-yl)-3-(4-methoxyphenyl)acrylamide]	660 ± 30	102 ± 2.34	11700 ± 280	18.7 (≈ 5.78 µg/mL)	190 to 192			
N=C(N)c1ccc(OCCCCCOc2ccc(C(=N)N)cc2)cc1 [PE, pentamidine, reference compound]	1.2 ± 0.1							
O=C(/C=C/c1ccc(Br)cc1)Nc1ccc2c(c1)B(O)OC2 [Compound 5d, (E)-3-(4-Bromophenyl)-N-(1-hydroxy-1,3-dihydrobenzo[c][1,2]oxaborol-6-yl)acrylamide]	470 ± 40	89.9 ± 5.12	12600 ± 280	10.7 (≈ 3.83 µg/mL)	206 to 210			
O=C(CCc1ccccc1)Nc1ccc2c(c1)B(O)OC2 [Compound 2]							0.14 ^b μg/mL	
Cc1ncc([N+](=O)[O-])n1CCO [ME, metronidazole, reference compound]			530					
O=C(/C=C/c1ccc([N+](=O)[O-])cc1)Nc1ccc2c(c1)B(O)OC2 [Compound 5c, (E)-N-(1-Hydroxy-1,3-dihydrobenzo[c][1,2]oxaborol-6-yl)-3-(4-nitrophenyl)acrylamide]	920 ± 40	94.3 ± 28.8	10200 ± 560	26.5 (≈ 8.59 µg/mL)	176 to 180			
O=C(/C=C/c1cccc([N+](=O)[O-])c1)Nc1ccc2c(c1)B(O)OC2 [Compound 5b, (E)-N-(1-Hydroxy-1,3-dihydrobenzo[c][1,2]oxaborol-6-yl)-3-(3-nitrophenyl)acrylamide]	130 ± 10	87 ± 1.59	41700 ± 230	107 (≈ 34.7 µg/mL)	176 to 178			
Cc1ccc(CC(=O)Nc2ccc(NC(=O)/C=C/c3ccc(OCc4ccccc4)cc3)cc2C(=O)c2ccccc2)cc1 [Compound 4, 2,5-bisacylaminobenzonephone]								650
